Measurements from the NIST ThermoML archive (doi:10.1021/je8008182).

Assay: xn = mol fraction of the nth substance listed
Conditions: 101 kPa, Liquid; for viscosity: Capillary tube (Ostwald / Ubbelohde) method; for mass density: Pycnometric method

Cc1ccncc1 [4-methylpyridine] + O
Conditions	mass density [kg/m3]	viscosity [mPa·s]
298.15 K, x1 = 0.0211	996.2	1.172
298.15 K, x1 = 0.0489	993.6	1.499
298.15 K, x1 = 0.1143	991.3	2.141
298.15 K, x1 = 0.225	984.8	2.602
298.15 K, x1 = 0.3111	983	2.521
298.15 K, x1 = 0.4	978.9	2.202
298.15 K, x1 = 0.5	970.4	1.88
298.15 K, x1 = 0.6353	964.1	1.539
298.15 K, x1 = 0.75	961.4	1.379
298.15 K, x1 = 0.9	958.7	1.09
298.15 K, x1 = 1	955.4	0.8723
303.15 K, x1 = 0.0211	994.2	1.037
303.15 K, x1 = 0.0489	991.2	1.325
303.15 K, x1 = 0.1143	987.9	1.844
303.15 K, x1 = 0.225	981.2	2.238
303.15 K, x1 = 0.3111	978.7	2.164
303.15 K, x1 = 0.4	972.1	1.904
303.15 K, x1 = 0.5	965.4	1.657
303.15 K, x1 = 0.6353	959.8	1.381
303.15 K, x1 = 0.75	956.4	1.16
303.15 K, x1 = 0.9	953.8	0.9871
303.15 K, x1 = 1	951.1	0.8175
308.15 K, x1 = 0.0211	992.1	0.9037
308.15 K, x1 = 0.0489	988.3	1.165
308.15 K, x1 = 0.1143	984.5	1.58
308.15 K, x1 = 0.225	977.6	1.924
308.15 K, x1 = 0.3111	974.2	1.9
308.15 K, x1 = 0.4	970.7	1.789
308.15 K, x1 = 0.5	964.9	1.595
308.15 K, x1 = 0.6353	955.3	1.247
308.15 K, x1 = 0.75	950.5	1.068
308.15 K, x1 = 0.9	946	0.7846
308.15 K, x1 = 1	941.3	0.7774
313.15 K, x1 = 0.0211	990	0.8272
313.15 K, x1 = 0.0489	986	1.044
313.15 K, x1 = 0.1143	980.9	1.4
313.15 K, x1 = 0.225	973.2	1.682
313.15 K, x1 = 0.3111	969.5	1.649
313.15 K, x1 = 0.4	965.9	1.561
313.15 K, x1 = 0.5	960.5	1.419
313.15 K, x1 = 0.6353	950.5	1.129
313.15 K, x1 = 0.75	945.9	0.9708
313.15 K, x1 = 0.9	941.6	0.7395
313.15 K, x1 = 1	936.6	0.7368
318.15 K, x1 = 0.0211	987.5	0.7494
318.15 K, x1 = 0.0489	983.3	0.9363
318.15 K, x1 = 0.1143	977.1	1.234
318.15 K, x1 = 0.225	969	1.467
318.15 K, x1 = 0.3111	965	1.441
318.15 K, x1 = 0.4	961.2	1.365
318.15 K, x1 = 0.5	955.7	1.263
318.15 K, x1 = 0.6353	945.9	1.019
318.15 K, x1 = 0.75	941.4	0.8874
318.15 K, x1 = 0.9	937	0.6952
318.15 K, x1 = 1	932.1	0.6855
323.15 K, x1 = 0.0211	985	0.6775
323.15 K, x1 = 0.0489	980.3	0.8486
323.15 K, x1 = 0.1143	973.4	1.099
323.15 K, x1 = 0.225	964.8	1.304
323.15 K, x1 = 0.3111	960.7	1.279
323.15 K, x1 = 0.4	956.5	1.207
323.15 K, x1 = 0.5	951	1.136
323.15 K, x1 = 0.6353	941.4	0.9623
323.15 K, x1 = 0.75	936.7	0.8112
323.15 K, x1 = 0.9	932.5	0.6516
323.15 K, x1 = 1	927.7	0.6505
328.15 K, x1 = 0.0211	983	0.6136
328.15 K, x1 = 0.0489	977.3	0.762
328.15 K, x1 = 0.1143	969.5	0.9781
328.15 K, x1 = 0.225	960.4	1.147
328.15 K, x1 = 0.3111	956	1.119
328.15 K, x1 = 0.4	952	1.069
328.15 K, x1 = 0.5	946.3	1.007
328.15 K, x1 = 0.6353	936.7	0.8648
328.15 K, x1 = 0.75	932.1	0.7423
328.15 K, x1 = 0.9	927.8	0.6014
328.15 K, x1 = 1	923.2	0.5905
333.15 K, x1 = 0.0211	979.3	0.5649
333.15 K, x1 = 0.0489	974.1	0.6555
333.15 K, x1 = 0.1143	965.8	0.8941
333.15 K, x1 = 0.225	956.4	1.037
333.15 K, x1 = 0.3111	951.4	1.008
333.15 K, x1 = 0.4	947.5	0.9636
333.15 K, x1 = 0.5	941.6	0.9199
333.15 K, x1 = 0.6353	931.9	0.7522
333.15 K, x1 = 0.75	927.3	0.6899
333.15 K, x1 = 0.9	923	0.5378
333.15 K, x1 = 1	918.5	0.5329
338.15 K, x1 = 0.0211	976.3	0.5403
338.15 K, x1 = 0.0489	970.8	0.6149
338.15 K, x1 = 0.1143	961.7	0.8036
338.15 K, x1 = 0.225	952.2	0.9466
338.15 K, x1 = 0.3111	946.9	0.9064
338.15 K, x1 = 0.4	942.8	0.8656
338.15 K, x1 = 0.5	936.7	0.8403
338.15 K, x1 = 0.6353	927.5	0.6948
338.15 K, x1 = 0.75	922.6	0.641
338.15 K, x1 = 0.9	918.5	0.4964
338.15 K, x1 = 1	914	0.4815
